In the assay the target is T1, human M1 receptor (Homo sapiens, UniProt P11229).
T1 sequence (P11229 1-460): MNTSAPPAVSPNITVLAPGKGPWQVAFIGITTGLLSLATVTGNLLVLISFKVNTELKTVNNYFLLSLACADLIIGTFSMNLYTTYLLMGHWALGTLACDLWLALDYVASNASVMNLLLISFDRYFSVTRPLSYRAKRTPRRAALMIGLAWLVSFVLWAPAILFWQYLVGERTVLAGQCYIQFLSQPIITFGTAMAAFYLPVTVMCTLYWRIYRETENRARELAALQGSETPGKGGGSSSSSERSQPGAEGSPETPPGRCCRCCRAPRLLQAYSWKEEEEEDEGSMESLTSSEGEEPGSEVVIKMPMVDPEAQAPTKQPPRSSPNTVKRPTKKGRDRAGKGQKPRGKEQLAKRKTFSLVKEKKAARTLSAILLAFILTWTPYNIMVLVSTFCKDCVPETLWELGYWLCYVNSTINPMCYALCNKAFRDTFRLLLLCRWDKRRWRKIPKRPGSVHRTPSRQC
Briefly: In vitro functional assay of muscarinic acetylcholine receptor activity (aequorin calcium flux, reversal of EC80 acetylcholine response). The following applies: CHO-K1 cells stably expressing human M1 receptor with aequorin; acetylcholine at EC80; calcium flux (luminescence); read-out: M1 IC50. Type of assay: cell-based. The method, boiled down:
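Antagonist mode: compound (final 0.1% DMSO) and coelenterazine-loaded M1/aequorin CHO-K1 cells incubated 30 min in the dark before EC80 acetylcholine addition. Calcium flash integrated as 40 s luminescence AUC; IC50 derived from dose-response curves.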
For orientation: Calcium assays in cells follow changes in intracellular calcium, usually with a dye or a luminescent sensor.
A word on the IC50: it is the concentration that inhibits the measured activity by half. For `N#Cc1ccc(C2(NCC(=O)N3CC4CCC(C3)N4c3ccc(C#N)cn3)CC2)cc1` [Example 100, 6-(3-((1-(4-cyanoplKml)cyclopropyl)glycyl)-3,8-diazabicyclo[3.2.1]oclaii-8-yl)mcotiiiomtrile], the IC50 was greater than 1000 nM. Regarding `C[C@@H](OCCC(=O)N1CC2CCC(C1)N2c1ccc(C#N)cn1)c1ccc(F)c(F)c1` [Example 306, 6-(3-(3-((R)-1-(3,4-difluorophenyl)ethoxy)propanoyl)-3,8-diazabicyclo[3.2.1]octan-8-yl)nicotinonitrile], the IC50 lay within 10 to 100 nM. Regarding `N#Cc1ccc(N2C3CCC2CN(C(=O)CCOC(c2cccc4ncnn24)C2CC2)C3)nc1` (racemic) [Example 309, 6-(3-(3-([1,2,4]triazolo[1,5-a]pyridin-5-yl(cyclopropyl)methoxy)propanoyl)-3,8-diazabicyclo[3.2.1]octan-8-yl)nicotinonitrile], the IC50 was less than 10 nM. In the case of `COc1ccc2c(c1)C(NCC(=O)N1CC3CCC(C1)N3c1ccc(C#N)cn1)CC2` (racemic) [Example 90, 6-(3-((6-methoxy-2,3-dihydro-1H-inden-1-yl)glycyl)-3,8-diazabicyclo[3.2.1]octan-8-yl)nicotinonitrile], the IC50 lay in the range of 100 to 1000 nM. To `N#Cc1ccc(N2C3CCC2CN(C(=O)COC2(c4cc(F)ccc4C#N)CC2)C3)nc1` [Example 298, 6-(3-(2-(1-(2-cyano-5-fluorophenyl)cyclopropoxy)acetyl)-3,8-diazabicyclo[3.2.1]octan-8-yl)nicotinonitrile] belongs 100 to 1000 nM. With `N#Cc1ccc(N2C[C@H]3CC[C@@H]2CN3C(=O)CCNC2(c3ccc(F)c(F)c3)CC2)nc1` [Example 41, 6-((1R,4R)-5-(3-((1-(3,4-difluorophenyl)cyclopropyl)amino)propanoyl)-2,5-diazabicyclo[2.2.2]octan-2-yl)nicotinonitrile], the IC50 lay within 10 to 100 nM. For the molecule `N#Cc1ccc(N2C3CCC2CN(C(=O)COC2(c4ccncc4)CC2)C3)nc1` [Example 227, 6-(3-(2-(1-(pyridin-4-yl)cyclopropoxy)acetyl)-3,8-diazabicyclo[3.2.1]octan-8-yl)nicotinonitrile], the IC50 was in the range of 100 to 1000 nM. Take `N#Cc1ccc(N2C3CCC2CN(C(=O)CN2CCC2c2ccc(F)cc2)C3)nc1` (racemic) [Example 104]: the concentration for half-maximal inhibition (IC50) is greater than 1000 nM. For the molecule `COc1cc(C2(OCC(=O)N3CC4CCC(C3)N4c3ccc(C#N)cn3)CCC2)cnn1` [Example 275, 6-(3-(2-(1-(6-methoxypyridazin-4-yl)cyclobutoxy)acetyl)-3,8-diazabicyclo[3.2.1]octan-8-yl)nicotinonitrile], the IC50 lay in the range of 10 to 100 nM.

Turning to `N#Cc1ccc(N2C3CCC2CN(C(=O)COCC2(c4cccc5ncnn45)CC2)C3)nc1` [Example 232, 6-(3-(2-((1-([1,2,4]triazolo[1,5-a]pyridin-5-yl)cyclopropyl)methoxy)acetyl)-3,8-diazabicyclo[3.2.1]octan-8-yl)nicotinonitrile], the IC50 is less than 10 nM. To `CC(NCC(=O)N1CC2CCC(C1)N2c1ccc(C#N)cn1)c1ccc(F)cc1F` (stereo in doubt) [Example 88, 6-(3-(((S)-1-(2,4-difluorophenyl)ethyl)glycyl)-3,8-diazabicyclo[3.2.1]octan-8-yl)nicotinonitrile] belongs 1000 to 10000 nM; to `N#Cc1ccc(N2C3CCC2CN(C(=O)CNC2(c4ccccc4)CC2)C3)nc1` [Example 94, 6-(3-((1-phenylcyclopropyl)glycyl)-3,8-diazabicyclo[3.2.1]octan-8-yl)nicotinonitrile], 1000 to 10000 nM. For `COc1ccccc1C1(NCCC(=O)N2CC3CCC(C2)N3c2ccc(C#N)cn2)CC1` [Example 15, 6-(3-(3-((1-(2-methoxyphenyl)cyclopropyl)amino)propanoyl)-3,8-diazabicyclo[3.2.1]octan-8-yl)nicotinonitrile], the IC50 is 10 to 100 nM.

Regarding `N#Cc1ccc(N2C3CCC2CN(C(=O)COC2(c4cccnc4)CCC2)C3)nc1` [Example 245, 6-(3-(2-(1-(pyridin-3-yl)cyclobutoxy)acetyl)-3,8-diazabicyclo[3.2.1]octan-8-yl)nicotinonitrile], the IC50 fell in the range of 100 to 1000 nM. Consider `N#Cc1ccc(N2C3CCC2CN(C(=O)COC2(c4ccc(Cl)c(Cl)c4)CC2)C3)nc1` [Example 214, 6-(3-(2-(1-(3,4-dichlorophenyl)cyclopropoxy)acetyl)-3,8-diazabicyclo[3.2.1]octan-8-yl)nicotinonitrile], for which the IC50 is 10 to 100 nM. To `CC(SCCC(=O)N1CC2CCC(C1)N2c1ccc(C#N)cn1)c1ccc(F)cc1` (racemic) [Example 135, 6-((3-((1-(4-fluorophenyl)ethyl)thio)propanoyl)-3,8-diazabicyclo[3.2.1]octan-8-yl)nicotinonitrile] belongs 1000 to 10000 nM; to `N#Cc1ccc(N2[C@@H]3CC[C@H]2CN(C(=O)CCNC2(c4ccccc4)CC2)C3)nc1` [Example 2, 6-(3-(3-((1-phenylcyclopropyl)amino)propanoyl)-3,8-diazabicyclo[3.2.1]octan-8-yl)nicotinonitrile], 100 to 1000 nM; to `N#Cc1ccc(N2C3CCC2CN(C(=O)COCC(F)(F)c2cccc4ncccc24)C3)nc1` [Example 276, 6-(3-(2-(2,2-difluoro-2-(quinolin-5-yl)ethoxy)acetyl)-3,8-diazabicyclo[3.2.1]octan-8-yl)nicotinonitrile], less than 10 nM.

`C[C@H](OCC(=O)N1CC2CCC(C1)N2c1ccc(C#N)cn1)c1ccccc1` [Example 179, 6-(3-(2-((S)-1-phenylethoxy)acetyl)-3,8-diazabicyclo[3.2.1]octan-8-yl)nicotinonitrile]: the IC50 lay within 100 to 1000 nM. For the molecule `N#Cc1ccc(N2C3CCC2CN(C(=O)COC2(c4cccc(Br)c4)CC2)C3)nc1` [Example 209, 6-(3-(2-(1-(3-bromophenyl)cyclopropoxy)acetyl)-3,8-diazabicyclo[3.2.1]octan-8-yl)nicotinonitrile], the IC50 was 100 to 1000 nM.

Regarding `CC(SCC(=O)N1CC2CCC(C1)N2c1ccc(C#N)cn1)c1ccc(F)cc1` (racemic) [Example 133, 6-(3-(2-((1-(4-fluorophenyl)ethyl)thio)acetyl)-3,8-diazabicyclo[3.2.1]octan-8-yl)nicotinonitrile], the 50% inhibitory concentration (IC50) lay in the range of 10 to 100 nM. With `CC(NCCC(=O)N1CC2CCC(C1)N2c1ccc(C#N)cn1)c1ccc(F)cc1` (stereo in doubt) [Example 7, 6-(3-(3-(((S)-1-(4-fluorophenyl)ethyl)amino)propanoyl)-3,8-diazabicyclo[3.2.1]octan-8-yl)nicotinonitrile], the IC50 was 1000 to 10000 nM. As to `N#Cc1ccc(N2C3CCC2CN(C(=O)COC2(c4ccc(F)cc4)COC2)C3)nc1` [Example 240, (3-(2-((3-(4-fluorophenyl)oxetan-3-yl)oxy)acetyl)-3,8-diazabicyclo[3.2.1]octan-8-yl)nicotinonitrile], the IC50 was in the range of 100 to 1000 nM. In the case of `CC(c1ccccc1)[S+]([O-])CCC(=O)N1CC2CCC(C1)N2c1ccc(C#N)cn1` (racemic) [Example 169, 6-(3-(3-((1-phenylethyl)sulfinyl)propanoyl)-3,8-diazabicyclo[3.2.1]octan-8-yl)nicotinonitrile], the IC50 lay within 1000 to 10000 nM. Take `C[C@H](NCCC(=O)N1C[C@H]2CC[C@@H](C1)N2c1ccc(C#N)cn1)c1ccc(F)cc1F` [Example 9, 6-(3-(3-(((S)-1-(2,4-difluorophenyl)ethyl)amino)propanoyl)-3,8-diazabicyclo[3.2.1]octan-8-yl)nicotinonitrile]: the IC50 fell in the range of 100 to 1000 nM.
